Experiments:
[1] = Dissolution of the powder in aqueous solution (equivalent of 4 g/l piroxicam, sample after 15 min, HPLC); type: physicochemical; settings: equivalent of 4 g/l of piroxicam in aqueous solution at 37° C.
[2] = 2:1 (v/v) dioxane:water mixture; cited from earlier work

Dissolution of the piroxicam (g/l) [1]: less than 0.2 g/l
Dissolution of the piroxicam ([1]; listed as Piroxicam): <0.2 g/L
Compound: CN1C(C(=O)Nc2ccccn2)=C(O)c2ccccc2S1(=O)=O [piroxicam]
pKa value of the enol functional group [2]: ~2
